Holding throughout (assay): DTP human tumour cell line panel, 48 h
Experiment [1] concerns A549 NSCLC.
The subject of experiment [2] is EKVX NSCLC.
Experiment [3] concerns IGROV1 ovarian.
Experiment [4] concerns M14 melanoma.
The test system of experiment [5] is NCI-H460 lung.
The test system of experiment [6] is NCI-H522 lung.
Experiment [7] has as its system OVCAR-5 ovarian.
The subject of experiment [8] is HT29 colon.
In experiment [9] the test system is LOX IMVI melanoma.

Structures are written as SMILES.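 In this assay, cells in 96-well plates receive the compound at five concentrations for 48 hours. Endpoints are linearly interpolated between the surrounding concentrations. Here, GI50 denotes the concentration required for 50% inhibition of growth. TGI denotes the concentration required for complete inhibition of growth.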

By TGI is commonly meant the concentration at which net growth stops. Lower therefore signals greater sensitivity of the cells. As to `COc1c2c(c(O)c3c4c(c(C)cc13)C1OC3(C(OC)OC5CC(C)(O)C(OC6CC(C)(O)C(O)C(C)O6)C(C)O5)OC1C(OC)(O4)C31CO1)C(=O)C(O)CC2OC1CC(C)(O)C(OC(C)=O)C(C)O1` (stereo not drawn), the TGI in experiment [1] was 1.45 µM; in experiment [2], 0.0336 µM; in experiment [3] it was 0.957 µM; in experiment [4], 0.0156 µM; in experiment [5], 0.15 µM; in [6], below 0.01 µM. This compound registered a TGI in experiment [7] below 0.01 µM.
For `Cc1nc(Nc2ccc(Cl)cc2)sc1C(=O)Nc1cccc2c(=O)[nH][nH]c(=O)c12`, the TGI was above 100 µM in experiment [1]; 44.2 µM in experiment [2]; 41.6 µM in experiment [8]; 83.5 µM in experiment [3]; 33 µM in [9]; 86.2 µM in experiment [4]. The TGI in experiment [5] is 88.6 µM; in experiment [6] it was 75.5 µM; in experiment [7], above 100 µM.
The term GI50 denotes the concentration that inhibits growth by half. `COc1cc(N)c(Cl)cc1C(=O)N[C@@H]1CCN(CCCOc2ccc(F)cc2)C[C@@H]1OC`: the GI50 was above 100 µM in experiment [1]; above 100 µM in [2]; 20.5 µM in experiment [8]; above 100 µM in [3]; 27 µM in [9]; 27.4 µM in experiment [4]. For the same compound, the GI50 in experiment [5] was 66.9 µM; in [6], 61.8 µM; in experiment [7], above 100 µM. The TGI in [1] was above 100 µM; in [2], above 100 µM; in experiment [8], above 100 µM; in experiment [3], above 100 µM; in experiment [9] it was above 100 µM; in experiment [4], 88.8 µM. Besides, the TGI in experiment [5], in [6] and in [7] was above 100 µM each time.
On to `O=C(O)C1CC2C=CCC(C2)C1` (stereo not drawn), for which the TGI in experiment [1], in [2], in [8], in [3], in experiment [9] and in [4] was above 100 µM each time. The TGI in experiment [5], in experiment [6] and in experiment [7] was above 100 µM throughout.
On to `CCNC(=O)COc1ccc(Cl)c(C)c1`, for which the TGI in experiment [1], in experiment [8], in experiment [3], in experiment [9], in experiment [4] and in experiment [5] was above 100 µM each time. Also, the TGI in experiment [6] and in [7] was above 100 µM throughout.
With `c1ccc(N2CCN(CCN3CCc4c([nH]c5ccccc45)C3c3cccnc3)CC2)cc1` (stereo not drawn), the TGI in experiment [1], in experiment [2], in experiment [8], in experiment [3], in [4] and in experiment [5] was above 100 µM in each case. Moreover, the TGI in [6] and in experiment [7] was above 100 µM in each case.
`COc1ccccc1/C=C(\NC(=O)c1ccccc1)c1nc2ccccc2[nH]1`: the TGI in [1], in [2], in experiment [8], in experiment [3], in experiment [9] and in experiment [4] was above 100 µM each time. The TGI in experiment [5], in experiment [6] and in [7] was above 100 µM each time.
As to `C=C(c1ccccc1)c1cc2c(=O)[nH]ccc2n1C`, the TGI in [1], in experiment [2], in [3], in experiment [9], in experiment [4] and in experiment [5] was above 100 µM in each case. The TGI in [6] was 54.9 µM; in [7], above 100 µM.
Take `COc1cccc(C=NC23CC4CC(CC(C4)C2)C3)c1`: the TGI in experiment [1], in experiment [2], in [8], in [3], in [9] and in experiment [4] was above 100 µM each time. Also, the TGI in [5], in experiment [6] and in experiment [7] was above 100 µM each time.
On to `Nc1ccccc1SC(/C=C/NNC1=NC(c2ccccc2)C(c2ccccc2)=NN1)c1ccccc1` (stereo not drawn), for which the TGI in experiment [1] was 33.4 µM; in experiment [2] it was 29 µM; in experiment [8], 34.8 µM; in experiment [3] it was 32.5 µM; in experiment [9] it was 27.1 µM; in [4], 25.3 µM. Further, the TGI came out at 51.9 µM in experiment [5], 14.5 µM in [6] and 37.1 µM in experiment [7].
As for `Cc1cc(O)c2c(c1)OC1(C)CCC3C(C)(C)CCCC34COC2C14` (stereo not drawn), the TGI in experiment [1] was 28.6 µM; in [2] it was 24.8 µM; in experiment [3] it was 38.7 µM; in [9] it was 27.3 µM; in experiment [4], 29.1 µM; in [5], 30.6 µM. Besides, the TGI amounted to 34.6 µM in [6] and 29.5 µM in [7].
For `CCOC(=O)NN1C(=O)C(=P(c2ccccc2)(c2ccccc2)c2ccccc2)C(C(=O)OC)=C1C`, the TGI in experiment [1], in experiment [2], in experiment [8], in [3], in experiment [9] and in experiment [4] was above 100 µM throughout. Also, the TGI in experiment [5], in experiment [6] and in [7] was above 100 µM throughout.
As for `COC(=O)C1=C(O)c2cc(OC)c(OC)c(OC)c2C(c2ccc3c(c2)OCO3)[C@@H]1C(=O)OC` (stereo partly drawn), the TGI is above 100 µM in experiment [1]; above 100 µM in experiment [2]; 12.7 µM in experiment [8]; above 100 µM in [3]; above 100 µM in [9]; 10.7 µM in experiment [4]. Further, the TGI in experiment [5] and in [7] was above 100 µM throughout.
In the case of `COC(OC)c1cccnc1C`, the TGI in experiment [1], in experiment [2], in [8], in experiment [3], in experiment [9] and in experiment [4] was above 100 µM in each case. Further, the TGI in [5], in experiment [6] and in experiment [7] was above 100 µM each time.

These data come from PubChem BioAssay (NCI).
